pIC50: −log10 of the molar value.
Key:
UM-UC-9 engineered cells = assay: Cell proliferation / short-term viability assay, CellTiter-Glo 144 h; format: cell-based, human; conditions: Homo sapiens, UM-UC-9, 144 h, read-out: CTGlo 144 h UMUC9.5, G150
Summary of the method: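 UM-UC-9 engineered assay-ready cells seeded at 500 cells/well in high-glucose DMEM/10% FBS, treated from dose-response plates, grown at 37° C, 5% CO2. CellTiter-Glo 2.0 luminescence read on day 7, with a day-0 pretreatment plate as T0 reference and DMSO wells as negative control.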

His6-TEV-PPARγ-(234-505) = target: T1, His6-TEV-PPARγ-(234-505) (Homo sapiens, UniProt P37231); assay: TR-FRET Assay to Measure Co-R Peptide Recruitment to PPARγ; format: biochemical; conditions: Co-R peptide (SMRT-ID2) recruitment; top final concentration 20 μM; read-out: TR-FRET i-Ag; AC50
T1 construct: The His6-TEV-PPARγ-(234-505) protein for assay was expressed and purified; TEV cleavage site (N); made in house
T1 sequence (P37231 234-505): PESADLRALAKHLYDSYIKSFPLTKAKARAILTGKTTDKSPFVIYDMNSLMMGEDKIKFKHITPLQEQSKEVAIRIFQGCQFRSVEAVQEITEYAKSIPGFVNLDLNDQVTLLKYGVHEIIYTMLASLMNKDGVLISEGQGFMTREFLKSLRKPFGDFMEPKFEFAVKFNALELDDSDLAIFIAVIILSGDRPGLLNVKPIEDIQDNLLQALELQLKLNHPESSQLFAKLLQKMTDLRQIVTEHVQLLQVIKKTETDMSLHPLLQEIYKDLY
Summary of the method: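 His-tagged PPARγ (or controls) was preincubated with compound for 20 minutes at room temperature, then 5 nM anti-His terbium antibody and 200 nM FITC-labeled SMRT-ID2 corepressor peptide (final) were added for a further hour. TR-FRET signal was normalized to percent response using 500 nM T0070907 and DMSO controls.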

Row | SMILES | pIC50 (UM-UC-9 engineered cells) | AC50 (His6-TEV-PPARγ-(234-505)) [nM]
1 | COc1cc(-c2cc(C(=O)N3[C@@H]4CC[C@H]3C[C@H](C(=O)NC3CCC(O)(C(F)(F)CO)CC3)C4)n[nH]2)c(F)cn1 (stereo partly drawn) [Example 436, (1R,3s,5S)—N-(4-(1,1-difluoro-2-hydroxyethyl)-4-hydroxycyclohexyl)-8-(5-(5-fluoro-2-methoxypyridin-4-yl)-1H-pyrazole-3-carbonyl)-8-azabicyclo[3.2.1]octane-3-carboxamide] | < 5.00 | 132
2 | COc1cc(-c2cc(C(=O)N3[C@@H]4CC[C@H]3C[C@H](C(=O)N[C@@H]3CCN(CC5(C(F)(F)F)CC5)C3)C4)n[nH]2)c(F)cn1 [Example 437, (1R,3s,5S)-8-(5-(5-fluoro-2-methoxypyridin-4-yl)-1H-pyrazole-3-carbonyl)-N—((R)-1-((1-(trifluoromethyl)cyclopropyl)methyl)pyrrolidin-3-yl)-8-azabicyclo[3.2.1]octane-3-carboxamide] | 7.17 | 14.8
3 | COc1cc(-c2cc(C(=O)N3CC[C@H](C(=O)NCC45CC(C4)N(CC(C)(C)F)C5)CC34CC4)n[nH]2)c(F)cn1 [Example 440, (S)-4-(5-(5-fluoro-2-methoxypyridin-4-yl)-1H-pyrazole-3-carbonyl)-N-((2-(2-fluoro-2-methylpropyl)-2-azabicyclo[2.1.1]hexan-4-yl)methyl)-4-azaspiro[2.5]octane-7-carboxamide] | 6.03 | 410
4 | COc1cc(-c2cc(C(=O)N3[C@@H]4CC[C@H]3C[C@H](C(=O)NC3CCC(N)(C(F)(F)F)CC3)C4)n[nH]2)c(F)cn1 (stereo partly drawn) [Example 441, (1R,3s,5S)—N-(4-amino-4-(trifluoromethyl)cyclohexyl)-8-(5-(5-fluoro-2-methoxypyridin-4-yl)-1H-pyrazole-3-carbonyl)-8-azabicyclo[3.2.1]octane-3-carboxamide] | 6.46 | 56.7
5 | COc1cc(-c2cc(C(=O)N3CC[C@H](C(=O)NC45CC(C4)N(CC(C)(C)F)C5)CC34CC4)n[nH]2)c(F)cn1 [Example 442, (S)-4-(5-(5-fluoro-2-methoxypyridin-4-yl)-1H-pyrazole-3-carbonyl)-N-(2-(2-fluoro-2-methylpropyl)-2-azabicyclo[2.1.1]hexan-4-yl)-4-azaspiro[2.5]octane-7-carboxamide] | 6.23 | 399
6 | COc1cc(-c2cc(C(=O)N3CC[C@H](C(=O)NCC45COC(C(F)(F)F)(C4)C5)CC34CC4)n[nH]2)c(F)cn1 [Example 443, (S)-4-(5-(5-fluoro-2-methoxypyridin-4-yl)-1H-pyrazole-3-carbonyl)-N-((1-(trifluoromethyl)-2-oxabicyclo[2.1.1]hexan-4-yl)methyl)-4-azaspiro[2.5]octane-7-carboxamide] | 7.39 | 21.4
7 | COc1cc(-c2cc(C(=O)N3CCC(C(=O)N[C@H]4CC[C@@](O)(C(F)(F)F)CC4)CC34COC4)n[nH]2)c(F)cn1 (stereo partly drawn) [Example 444, 5-(5-(5-fluoro-2-methoxypyridin-4-yl)-1H-pyrazole-3-carbonyl)-N-((1r,4r)-4-hydroxy-4-(trifluoromethyl)cyclohexyl)-2-oxa-5-azaspiro[3.5]nonane-8-carboxamide] | < 5.00 | 113
8 | COc1cc(-c2cc(C(=O)N3CC[C@H](C(=O)NCc4ncc(OC5COC5)cc4Cl)CC34CC4)n[nH]2)c(F)cn1 [Example 446, (S)—N-((3-chloro-5-(oxetan-3-yloxy)pyridin-2-yl)methyl)-4-(5-(5-fluoro-2-methoxypyridin-4-yl)-1H-pyrazole-3-carbonyl)-4-azaspiro[2.5]octane-7-carboxamide] | 7.56 | 1.3
9 | COc1cc(-c2cc(C(=O)N3CC[C@H](C(=O)NCc4ncc(N5CC(C)NC(C)C5)cn4)CC34CC4)n[nH]2)c(F)cn1 (stereo partly drawn) [Example 447, (7S)—N-((5-(3,5-dimethylpiperazin-1-yl)pyrimidin-2-yl)methyl)-4-(5-(5-fluoro-2-methoxypyridin-4-yl)-1H-pyrazole-3-carbonyl)-4-azaspiro[2.5]octane-7-carboxamide] | 5.44 | 508
10 | COc1cc(-c2cc(C(=O)N3CC[C@H](C(=O)NC4(C#N)CC4)CC34CC4)n[nH]2)c(F)cn1 [Example 448, (S)—N-(1-cyanocyclopropyl)-4-(5-(5-fluoro-2-methoxypyridin-4-yl)-1H-pyrazole-3-carbonyl)-4-azaspiro[2.5]octane-7-carboxamide] | 5.78 | 123
11 | COc1cnc(CNC(=O)[C@H]2CCN(C(=O)c3cc(-c4cc(OC)ncc4F)[nH]n3)C3(CC3)C2)nc1 [Example 455, (S)-4-(5-(5-fluoro-2-methoxypyridin-4-yl)-1H-pyrazole-3-carbonyl)-N-((5-methoxypyrimidin-2-yl)methyl)-4-azaspiro[2.5]octane-7-carboxamide] | 6.67 | 67.9
12 | COc1cc(-c2cc(C(=O)N3CC[C@H](C(=O)NCc4ncc(C(F)(F)F)cn4)CC34CC4)n[nH]2)c(F)cn1 [Example 457, (S)-4-(5-(5-fluoro-2-methoxypyridin-4-yl)-1H-pyrazole-3-carbonyl)-N-((5-(trifluoromethyl)pyrimidin-2-yl)methyl)-4-azaspiro[2.5]octane-7-carboxamide] | 6.38 | 13.4
13 | COc1cc(-c2cc(C(=O)N3CC[C@H](C(=O)NC4(c5ncc(Cl)cc5Cl)CC4)CC34CC4)n[nH]2)c(F)cn1 [Example 458, (S)—N-(1-(3,5-dichloropyridin-2-yl)cyclopropyl)-4-(5-(5-fluoro-2-methoxypyridin-4-yl)-1H-pyrazole-3-carbonyl)-4-azaspiro[2.5]octane-7-carboxamide] | 7.58 | 3.8
14 | COc1cc(-c2cc(C(=O)N3CC[C@H](C(=O)NCC4(O)COC4)CC34CC4)[nH]n2)c(F)cn1 [Example 463, (S)-4-(3-(5-fluoro-2-methoxypyridin-4-yl)-1H-pyrazole-5-carbonyl)-N-((3-hydroxyoxetan-3-yl)methyl)-4-azaspiro[2.5]octane-7-carboxamide] | 5.28 | 180
15 | COc1cc(-c2cc(C(=O)N3CC[C@H](C(=O)NCc4nc(C)c(C)n4C)CC34CC4)n[nH]2)c(F)cn1 [Example 465, (S)-4-(5-(5-fluoro-2-methoxypyridin-4-yl)-1H-pyrazole-3-carbonyl)-N-((1,4,5-trimethyl-1H-imidazol-2-yl)methyl)-4-azaspiro[2.5]octane-7-carboxamide] | 6.07 | 88.6
16 | COc1cc(-c2cc(C(=O)N3CC[C@H](C(=O)NC4CCNC4)CC34CC4)n[nH]2)c(F)cn1 (stereo partly drawn) [Example 471, (7S)-4-(5-(5-fluoro-2-methoxypyridin-4-yl)-1H-pyrazole-3-carbonyl)-N-(pyrrolidin-3-yl)-4-azaspiro[2.5]octane-7-carboxamide] | < 5.00 | 62.6
17 | COc1cc(-c2cc(C(=O)N3CC[C@H](C(=O)NCc4nc(C)nn4C(C)C)CC34CC4)n[nH]2)c(F)cn1 [Example 473, (S)-4-(5-(5-fluoro-2-methoxypyridin-4-yl)-1H-pyrazole-3-carbonyl)-N-((1-isopropyl-3-methyl-1H-1,2,4-triazol-5-yl)methyl)-4-azaspiro[2.5]octane-7-carboxamide] | 5.47 | 443
18 | COc1cc(-c2cc(C(=O)N3CC[C@H](C(=O)NCc4ncc(C(F)(F)F)[nH]4)CC34CC4)[nH]n2)c(F)cn1 [Example 476, (S)-4-(3-(5-fluoro-2-methoxypyridin-4-yl)-1H-pyrazole-5-carbonyl)-N-((5-(trifluoromethyl)-1H-imidazol-2-yl)methyl)-4-azaspiro[2.5]octane-7-carboxamide] | 6.39 | 17.4
19 | CC(=O)c1cc(-c2cc(C(=O)N3CCC(C(=O)NCc4ncc(F)cc4Cl)CC34CC4)n[nH]2)c(F)cn1 (stereo not drawn) [Example 477, 4-(5-(2-acetyl-5-fluoropyridin-4-yl)-1H-pyrazole-3-carbonyl)-N-((3-chloro-5-fluoropyridin-2-yl)methyl)-4-azaspiro[2.5]octane-7-carboxamide] | 6.51 | 42.8
20 | COc1cc(-c2cc(C(=O)N3CC[C@H](C(=O)NCc4nc(N5C[C@@H](C)N[C@@H](C)C5)oc4C(F)(F)F)CC34CC4)n[nH]2)c(F)cn1 [Example 482, (S)—N-((2-((3S,5R)-3,5-dimethylpiperazin-1-yl)-5-(trifluoromethyl)oxazol-4-yl)methyl)-4-(5-(5-fluoro-2-methoxypyridin-4-yl)-1H-pyrazole-3-carbonyl)-4-azaspiro[2.5]octane-7-carboxamide] | 6.57 | 29.5
21 | COc1cc(-c2cc(C(=O)N3CC[C@H](C(=O)NCc4nc(N5C[C@@H](C)N(C)[C@@H](C)C5)oc4C(F)(F)F)CC34CC4)n[nH]2)c(F)cn1 [Example 485, (S)-4-(5-(5-fluoro-2-methoxypyridin-4-yl)-N-pyrazole-3-carbonyl)-N-((5-(trifluoromethyl)-2-((3S,5R)-3,4,5-trimethylpiperazin-1-yl)oxazol-4-yl)methyl)-4-azaspiro[2.5]octane-7-carboxamide] | 6.46 | 26.7

From patent US12606541B2, “PPARg modulators and methods of use” (Eisai R&D Management Co., Ltd., priority 2020, dated 2026)
